Source: ChEMBL document CHEMBL3507680, “University of Dundee, Gates Library screen for HepG2 cell viability”

Assay: Human HepG2 cell viability assay in 384 well format
Assay type: toxicity, cell-based
Parameters: dose 125 nL, time 70.5 hour; concentration not given beside the values
Conditions: HepG2 cells, read-out: Inhibition

SMILES | cytotoxicity at 70.5 h [%]
CSCCCNc1ncnc2cccc(F)c12 | 23.2
CC(=O)c1cccc(OCc2cc(C(=O)N3CCCCO3)n[nH]2)c1 | -15.4
COc1cccc2c1OCCCN(Cc1ccc(C(N)=O)c(=O)[nH]1)C2 | -8.27
CCN(CC)CCn1cnc(-c2ccccc2)c1-c1ncc[nH]1 | -10.3
Cc1cc(=O)c2ccccc2n1CC1CCCN(C)C1 (stereo not given) | 31.9
CCc1nc(C)c(CN2CCOC(Cc3ccccc3Cl)C2)[nH]1 (stereo not given) | -6.82
CC(C)(C)c1ncc2c(n1)CN(C(=O)c1ccc(-n3cnnn3)cc1)C2 | -3.62
CCc1ccc2nc(-c3cnn(C)c3)cc(C(=O)N3CCCC3)c2c1 | -5.34
CCc1ocnc1C(=O)N1CCN(c2ccc3ccccc3c2)CC1 | 4.76
Cc1nc(N(C)C)ncc1C(=O)N[C@@H]1CCc2ccccc21 | -11.5
Cc1nnc(NC(=O)N2CCCCC2CCO)s1 (stereo not given) | -0.98
CCCn1cnnc1CN(C)C(=O)CCC(=O)Nc1cc(C)ccc1F | -6.48
CSCCC(=O)N1CCC(c2nccn2CCN(C)C)CC1 | -2.46
COCc1nc(CN2C(=O)OC[C@@H]2C(C)C)no1 | -6.26
CCOc1ccccc1CN(CC)Cc1ccc(S(C)(=O)=O)cc1 | -5.03
CN1CCCC(CCC(=O)N2CCc3onc(C(=O)N(C)C)c3C2)C1 (stereo not given) | -1.71
CCC(CO)N(Cc1ccsc1)Cc1ccc(-c2ccn[nH]2)s1 (stereo not given) | -5.61
CCn1ccnc1CNc1nccc(-c2cn(C)nc2C)n1 | -2.79
COc1ccc(OC2CCN(c3ccncc3)CC2)cc1 | -3.12
CC(C)=CCCC1(C)CCC(=O)N(CCc2csc(N)n2)C1 (stereo not given) | -5.28
COC(=O)c1ccc(NC(=O)CNCc2ccco2)cc1 | -5.33
Cc1noc(-c2ccc(N3CCCC(C(=O)c4nccn4C)C3)nc2)n1 (stereo not given) | -8.49
CN(Cc1ccsc1)C(=O)c1n[nH]c(N)c1-c1ccccc1 | -1.37

SMILES | cytotoxicity at 70.5 h [%]
COc1ccc2c(c1)C(C(=O)N(C)CCCc1cnn(C)c1)CC(=O)N2 (stereo not given) | -12.9
CC(C)CC(=O)N1CCCCC(NC(=O)CCc2cccnc2)C1 (stereo not given) | -1.04
Cc1cc(C)n(CC(C)Nc2nc(C)nc3c2CCNC3)n1 (stereo not given) | -8.55
Cc1cnc(N2CCCC3(CCOCC3)C2)nc1 | -1.55
CN(C)c1ccc(C(=O)N2Cc3cnc(C(C)(C)C)nc3C2)cc1 | -2.91
CC(C)c1noc(CN(C)C(=O)C2COc3ccccc3C2)n1 (stereo not given) | -7.56
CC(c1ccon1)N(C)Cc1cc(O)c2cc(F)ccc2n1 (stereo not given) | -10.6
CC(C)[C@H]1CN(S(=O)(=O)c2cccnc2)C[C@@H]1N | 0.829
COc1cccc(OCCN2CC[C@@](O)(C3CCOCC3)[C@H](C)C2)c1 | 1.27
CCc1ccccc1OCCN(C)C(=O)CCN1CCCO1 | -3.75
OCCC1CN(c2ncnc3[nH]cnc23)CCN1Cc1cccs1 (stereo not given) | -3.01
Cc1cccc(CN2C[C@H]3CC[C@@H]2CN(Cc2[nH]cnc2C)C3)n1 | -5.25
CCc1cn[nH]c1C1CCN(c2cc(C)c3cc(OC)ccc3n2)CC1 | 1.76
COCCN1CCC(CNc2nccc(-c3cnn(C)c3)n2)CC1 | -3.27
Fc1ccc(Cn2ncc3c2CN(c2ncccn2)C3)cc1 | -0.987
Cc1cc2cccc(NC(=O)N3CCC(N4CCSCC4)CC3)c2o1 | -11
CC(C)OC(=O)N1CCCC(c2nccn2Cc2ccncc2)C1 (stereo not given) | -8
O=C1CCC2(CCCN(C(=O)c3ccc[nH]3)C2)CN1Cc1cccnc1 (stereo not given) | -3.97
COc1nc2ccn(CCc3cc(O)nc(C)n3)c(=O)c2cc1C#N | -7.61
CN(C)C(=O)CN1CC=C(c2cnn(Cc3ccccc3)c2)CC1 | -15.3
O=C(O)c1ccnc(-c2ccnc(NCCc3ccc(F)cc3)n2)c1 | -5.83
COc1nc2c(cc1C(=O)NCCc1nc3ccccc3s1)CCC2 | -6.58
